Assay results taken from US6417384B1, “Radioiodinated phospholipid ether analogs and methods of using the same” (The Regents of the University of Michigan, priority 1999, dated 2002).

Tests used:
[1] = system: rats bearing Walker-256 tumor; assay: Biodistribution studies with Walker-256 carcinosarcoma; assay type: in vivo, rat
Description: The three radiolabelled compounds illustrated in FIG. 5, including the improved C-18 analog 18-(p-iodophenyl)octadecyl phosphocholine (Compound XVI) described in Example 2, were prepared and administered to two sets of female Sprague Dawley rats (Charles River, Portage, Mich.). One normal set was used as a control, and one set was inoculated with Walker-256 carcinosarcoma cells (5×10^6 cells) in 0.2 ml saline in the right hindlimb. The Walker carcinoma cell line was provided by Dr. James Varani of the Department of Pathology at the University of Michigan, and is an accepted cell line representative of effect in humans. See, e.g. Tayck et al., “Influence of the Walker 256 Carcinosarcoma on Muscle, Tumor, and Whole-Body Protein Synthesis and Growth Rate in the Cancer-Bearing Rat, Cancer Res. 46:5649-54 (1986).
The animals were used 6-8 days later when the tumor weight averaged 10 g. The radiolabelled compounds were dissolved in absolute ethanol (50-500 μl) and Tween-20 (0.1 ml/mg of compound) was added to the solution. Ethanol was removed by evaporation under a stream of nitrogen. Physiological saline or sterile water was added, to give a 2-3% Tween-20 solution which was subsequently mixed by vortex. The solubilized radiolabelled compounds (5-10 μCi, 0.3 ml) were administered intravenously via the tail vein to tumor bearing rats, and the animals were sacrificed by exsanguination while under ether anesthesia at the various time points. Blood samples were collected through cardiac puncture and selected tissues (liver, kidney, etc.) were removed, trimmed, blotted to remove excess blood and weighed. Large organs were thoroughly minced with scissors to obtain random representative tissue samples.
For the biodistribution experiments with 12-(p-iodophenyl)dodecyl phosphocholine, weighed tissue samples were counted with a well scintillation counter (85% counting efficiency). The concentration of radioactivity in each tissue was expressed as a percentage of administered dose per gram of tissue.
Tissue distribution was assessed at various times following administration of the radioiodinated chain length isomers. The results are expressed as the mean % administered dose per gram±SEM (% Dose/g±SEM).

[2] = system: rats bearing Dunning (MATLyLu) prostate tumors; assay: Biodistribution studies with Dunning prostate tumor; assay type: in vivo, rat; details: for mean % administered dose per gram, Adrenal / mean % administered dose per gram, Blood / mean % administered dose per gram, Kidney / mean % administered dose per gram, Liver / mean % administered dose per gram, Lung / mean % administered dose per gram, Plasma / mean % administered dose per gram, Tumor: i.v., Dunning MAT-LyLu prostate tumor-bearing rats, mean ± SEM
Description: The three radiolabelled compounds illustrated in FIGS. 7A-7C, including the improved C-18 analogs 18-(p-iodophenyl)octadecyl phosphocholine (Compound XVI—FIG. 7B) and 1-O-[18-(p-iodophenyl)octadecyl]-1,3-propanediol-3-phosphocholine (Compound XIV—FIG. 7C) described in Examples 2 and 3, respectively, were prepared and administered to two sets of male Copenhagen rats (Harlan Sprague-Dawley, Indianapolis, Ind.). One group of normal animals was used as a control, and another group was inoculated with Dunning prostate tumor cells (1×10^6 MAT-LyLu cells) in 0.2 ml saline in the right hindlimb. The MAT-LyLu subline of the Dunning (R-3327) adenocarcinoma prostate tumor was provided by Dr. Ken Pienta of the Department of Urology at the University of Michigan, and is an accepted cell line representative of effect in humans. See, e.g., Pienta et al., “Inhibition of Spontaneous Metastasis in a Rat Prostrate Cancer Model by Oral Administration of Modified Citrus Pectin, J. Natl. Cancer Inst. 87:348-53 (1995).
The animals were maintained with free access to food and water until day 8-10. The radioiodinated phospholipid ether analog formulated in 2% Tween 20—sterile water (5-10 μCi, 0.3-0.4 ml, described above in Example 6) was administered intravenously into the tail vein of the tumor-bearing animals under metofane anesthesia. The animals were euthanized at selected time points after injection (n=3 per time point) and samples of blood, plasma and a variety of tissues including tumor and prostate are collected and analyzed for radioiodine content. Biodistribution values are calculated as the mean of the individual % administered dose per gram of tissue and % dose per organ values.

[3] = female, Sprague Dawley, rat, in vivo, iv, 24 h
[4] = female, Sprague Dawley, rat, in vivo, iv, 48 h

Which “mean % administered dose per gram, Adrenal” value ([1]; Adrenal, 24 hr, i.v., Walker-256 tumor-bearing rats, mean ± SEM) does the source give for `C[N+](C)(C)CCOP(=O)([O-])OCCCCCCCCCCCCCCCc1ccc(I)cc1` [C-15 Analog, 15-(p-iodophenyl)pentadecyl phosphocholine] here?
The value was 0.73 ± 0.08 % Dose/g.

And the “mean % administered dose per gram, Adrenal” value ([1]; Adrenal, 48 hr, i.v., Walker-256 tumor-bearing rats, mean ± SEM)?
The value was 0.49 ± 0.05 % Dose/g.

What about the “mean % administered dose per gram, Blood” value ([1]; Blood, 24 hr, i.v., Walker-256 tumor-bearing rats, mean ± SEM) of the same compound?
Its value is 0.16 ± 0.01 % Dose/g.

And the “mean % administered dose per gram, Blood” value ([1]; Blood, 48 hr, i.v., Walker-256 tumor-bearing rats, mean ± SEM)?
The value was 0.14 ± 0.01 % Dose/g.

And the blood levels ([1]; Blood, 120 hours, i.v., Walker-256 tumor-bearing rats, mean ± SEM)?
Its blood levels is 0.07±0.01 % Dose/g.

What about the “mean % administered dose per gram, Duodenum” value ([1]; Duodenum, 24 hr, i.v., Walker-256 tumor-bearing rats, mean ± SEM) of the same compound?
The value was 1.13 ± 0.13 % Dose/g.

What about the “mean % administered dose per gram, Duodenum” value ([1]; Duodenum, 48 hr, i.v., Walker-256 tumor-bearing rats, mean ± SEM) of the same compound?
The value was 1.38 ± 0.24 % Dose/g.

What about the “mean % administered dose per gram, Kidney” value ([1]; Kidney, 24 hr, i.v., Walker-256 tumor-bearing rats, mean ± SEM) of the same compound?
Its value is 1.14 ± 0.11 % Dose/g.

What about the “mean % administered dose per gram, Kidney” value ([1]; Kidney, 48 hr, i.v., Walker-256 tumor-bearing rats, mean ± SEM) of the same compound?
The value was 0.91 ± 0.04 % Dose/g.

And the “mean % administered dose per gram, Liver” value ([1]; Liver, 24 hr, i.v., Walker-256 tumor-bearing rats, mean ± SEM)?
Its value is 1.29 ± 0.10 % Dose/g.

What about the “mean % administered dose per gram, Liver” value ([1]; Liver, 48 hr, i.v., Walker-256 tumor-bearing rats, mean ± SEM) of the same compound?
The value was 0.83 ± 0.04 % Dose/g.

What about the “mean % administered dose per gram, Lung” value ([1]; Lung, 24 hr, i.v., Walker-256 tumor-bearing rats, mean ± SEM) of the same compound?
Its value is 0.97 ± 0.03 % Dose/g.

What about the “mean % administered dose per gram, Lung” value ([1]; Lung, 48 hr, i.v., Walker-256 tumor-bearing rats, mean ± SEM) of the same compound?
Its value is 0.81 ± 0.04 % Dose/g.

And the “mean % administered dose per gram, Plasma” value ([1]; Plasma, 24 hr, i.v., Walker-256 tumor-bearing rats, mean ± SEM)?
The value was 0.16 ± 0.01 % Dose/g.

What about the “mean % administered dose per gram, Plasma” value ([1]; Plasma, 48 hr, i.v., Walker-256 tumor-bearing rats, mean ± SEM) of the same compound?
The value was 0.15 ± 0.03 % Dose/g.

And the “mean % administered dose per gram, Tumor” value ([1]; Tumor, 24 hr, i.v., Walker-256 tumor-bearing rats, mean ± SEM)?
The value was 1.47 ± 0.10 % Dose/g.

And the “mean % administered dose per gram, Tumor” value ([1]; Tumor, 48 hr, i.v., Walker-256 tumor-bearing rats, mean ± SEM)?
The value was 1.65 ± 0.23 % Dose/g.

Which results are given for `C[N+](C)(C)CCOP(=O)([O-])OCCCOCCCCCCCCCCCCCCCCCCc1ccc(I)cc1` [Compound XIV, 1-O-[18-(p-Iodophenyl)octadecyl]-1,3-propanediol-3-phosphocholine]?
mean % administered dose per gram, Adrenal ([2]; 24 hr): 1.37 ± 0.03 % Dose/g; mean % administered dose per gram, Adrenal ([2]; 48 hr): 1.04 ± 0.07 % Dose/g; mean % administered dose per gram, Blood ([2]; 24 hr): 0.41 ± 0.01 % Dose/g; mean % administered dose per gram, Blood ([2]; 48 hr): 0.29 ± 0.01 % Dose/g; mean % administered dose per gram, Kidney ([2]; 24 hr): 0.73 ± 0.02 % Dose/g; mean % administered dose per gram, Kidney ([2]; 48 hr): 0.65 ± 0.01 % Dose/g; mean % administered dose per gram, Liver ([2]; 24 hr): 0.57 ± 0.02 % Dose/g; mean % administered dose per gram, Liver ([2]; 48 hr): 0.36 ± 0.01 % Dose/g; mean % administered dose per gram, Lung ([2]; 24 hr): 0.89 ± 0.07 % Dose/g; mean % administered dose per gram, Lung ([2]; 48 hr): 0.78 ± 0.02 % Dose/g; mean % administered dose per gram, Plasma ([2]; 24 hr): 0.58 ± 0.01 % Dose/g; mean % administered dose per gram, Plasma ([2]; 48 hr): 0.42 ± 0.03 % Dose/g; mean % administered dose per gram, Tumor ([2]; 24 hr): 0.43 ± 0.05 % Dose/g; mean % administered dose per gram, Tumor ([2]; 48 hr): 0.39 ± 0.01 % Dose/g

What does the source list for `C[N+](C)(C)CCOP(=O)([O-])OCCCCCCCCCCCCCCCCCCc1ccc(I)cc1` [Compound XVI, 18-(p-iodophenyl)octadecyl phosphocholine]?
mean % administered dose per gram, Adrenal ([2]; 24 hr): 0.88 ± 0.02 % Dose/g; mean % administered dose per gram, Adrenal ([2]; 48 hr): 0.76 ± 0.03 % Dose/g; mean % administered dose per gram, Blood ([2]; 24 hr): 0.88 ± 0.04 % Dose/g; mean % administered dose per gram, Blood ([2]; 48 hr): 0.64 ± 0.05 % Dose/g; mean % administered dose per gram, Kidney ([2]; 24 hr): 0.59 ± 0.02 % Dose/g; mean % administered dose per gram, Kidney ([2]; 48 hr): 0.51 ± 0.03 % Dose/g; mean % administered dose per gram, Liver ([2]; 24 hr): 0.57 ± 0.02 % Dose/g; mean % administered dose per gram, Liver ([2]; 48 hr): 0.40 ± 0.03 % Dose/g; mean % administered dose per gram, Lung ([2]; 24 hr): 0.84 ± 0.01 % Dose/g; mean % administered dose per gram, Lung ([2]; 48 hr): 0.69 ± 0.05 % Dose/g; mean % administered dose per gram, Plasma ([2]; 24 hr): 1.43 ± 0.06 % Dose/g; mean % administered dose per gram, Plasma ([2]; 48 hr): 0.99 ± 0.11 % Dose/g; mean % administered dose per gram, Tumor ([2]; 24 hr): 0.75 ± 0.04 % Dose/g; mean % administered dose per gram, Tumor ([2]; 48 hr): 0.81 ± 0.04 % Dose/g; tumor levels relative to the shorter chain analog ([2]; versus C-12 analog, Dunning prostate tumor model): more than twice as high; mean % administered dose per gram, Adrenal [1, 3]: 0.85 ± 0.04 % Dose/g; mean % administered dose per gram, Blood [1, 3]: 0.96 ± 0.00 % Dose/g; mean % administered dose per gram, Duodenum [1, 3]: 0.69 ± 0.05 % Dose/g; mean % administered dose per gram, Kidney [1, 3]: 0.65 ± 0.00 % Dose/g; mean % administered dose per gram, Liver [1, 3]: 0.55 ± 0.04 % Dose/g; mean % administered dose per gram, Lung [1, 3]: 0.88 ± 0.06 % Dose/g; mean % administered dose per gram, Plasma [1, 3]: 1.47 ± 0.03 % Dose/g; mean % administered dose per gram, Tumor [1, 3]: 0.98 ± 0.07 % Dose/g; mean % administered dose per gram, Adrenal [1, 4]: 0.92 ± 0.06 % Dose/g; mean % administered dose per gram, Blood [1, 4]: 0.64 ± 0.07 % Dose/g; mean % administered dose per gram, Duodenum [1, 4]: 0.68 ± 0.04 % Dose/g; mean % administered dose per gram, Kidney [1, 4]: 0.59 ± 0.04 % Dose/g; mean % administered dose per gram, Liver [1, 4]: 0.59 ± 0.05 % Dose/g; mean % administered dose per gram, Lung [1, 4]: 0.76 ± 0.07 % Dose/g; mean % administered dose per gram, Plasma [1, 4]: 0.95 ± 0.11 % Dose/g; mean % administered dose per gram, Tumor [1, 4]: 1.14 ± 0.01 % Dose/g; blood levels ([1]; female, Sprague Dawley, rat, in vivo, iv, 120 h): 0.60±0.01 % Dose/g; clearance from non-target tissues ([1]; rat, in vivo): much more rapid than from tumor; level in the tumor over a longer time period ([1]; rat, in vivo): increased significantly; retention in the circulation ([1]; rat, in vivo): retained in the circulation to a much greater extent than the other chain length isomers surveyed
